Where a chain is given by its changes, count along the chain named. Values joined by “and” are separate entries in the source; they are usually repeats but may differ in a detail not shown here. Identical values can stand only once.
Key:
R190C ATR [1] = biological target: T1, R190C ATR (Homo sapiens, UniProt Q96EY8, R190C); experiment: EPR spectroscopy of cob(II)alamin with ATR and ATP; format: binding; set-up: The expression construct for recombinant human full-length and ΔN18 ATR in a pET-28b vector; His-tag (thrombin-cleavable) (N, cleaved yes); made in house; host or cells: E. coli BL21 (DE3); details: R190C ATR 500 μM trimer, cob(II)alamin 300 μM, 5 mM ATP, 100 K
T1 sequence (Q96EY8 38-250 R190C limits assumed): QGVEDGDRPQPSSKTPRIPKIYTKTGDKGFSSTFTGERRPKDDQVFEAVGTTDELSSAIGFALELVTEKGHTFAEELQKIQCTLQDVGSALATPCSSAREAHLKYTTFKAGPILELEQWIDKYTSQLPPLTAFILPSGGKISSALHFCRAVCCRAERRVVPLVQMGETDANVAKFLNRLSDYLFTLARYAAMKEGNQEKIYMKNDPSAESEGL
Experimental: (§1) EPR spectra were recorded on a Bruker EMX 300 equipped with a Bruker 4201 cavity and a Varian liquid nitrogen cryostat. The temperature was controlled by an Oxford Instruments ITC4 temperature controller. The samples were prepared inside an anaerobic chamber (O2 < 0.3 ppm) and contained 300 μM cob(II)alamin, 5 mM ATP and WT ATR (200 μM trimer) or 500 μM (trimer) E193K, R190C or R190H ATR in 50 mM Hepes pH 7.5, 150 mM KCl, 2 mM MgCl2, 2 mM TCEP, and 10% glycerol. The following instrument settings were employed: microwave frequency, 9.27 GHz; power, 2.0 mW; modulation amplitude, 1.0 mT; modulation frequency, 100 kHz; temperature, 100 K. Five scans were acquired for each sample. A buffer spectrum was subtracted from the sample spectrum. The EPR simulations were performed using the EasySpin program ([36]).

R190H ATR [2] = biological target: T2, R190H ATR (Homo sapiens, UniProt Q96EY8, R190H); experiment: Cob(II)alamin binding to ATR, UV-visible titration; details: 1 mM ATP, anaerobic, buffer A
T2 construct: The expression construct for recombinant human full-length and ΔN18 ATR in a pET-28b vector; His-tag (thrombin-cleavable) (N, cleaved yes); made in house; host or cells: E. coli BL21 (DE3)
T2 sequence (Q96EY8 38-250 R190H limits assumed): T1 sequence (Q96EY8 38-250 R190C limits assumed) with C153H
Experimental: (§2) Cob(II)alamin binding to ATR was determined by the titrations performed in the anaerobic chamber (<0.2 ppm O2 levels). The increasing concentrations of WT or mutant ATR were added to 30 μM cob(II)alamin and 1 mM ATP in buffer A. The concentration of bound cob(II)alamin was determined using Δε474nm = 5.1 cm^−1 mM^−1. The change in absorbance at 464 nm, corresponding to the base-off ATR-bound cob(II)alamin was plotted against ATR concentration, and the data were analyzed using Equation 1, as described above.

E193K ATR [3] = biological target: T3, E193K ATR (Homo sapiens, UniProt Q96EY8, E193K); experiment: Cob(II)alamin binding, separation of unbound ligand with 10 kDa cut-off filter; set-up: WT and the R190C variants of ΔN18-ATR and full-length E193K ATR were purified; His-tag (thrombin-cleavable) (N, cleaved yes); made in house; host or cells: E. coli BL21 (DE3)
T3 sequence (Q96EY8 38-250 E193K limits assumed): T1 sequence (Q96EY8 38-250 R190C limits assumed) with C153R, E156K
Experimental: Although we were unable to determine the KM for cob(II)alamin because of technical limitations of the steady-state assay, the KD for this substrate was determined. In the presence of ATP, cob(II)alamin binds to ATR in a four-coordinate base-off conformation ([17]), which is signaled by a blue shift in the absorption maximum from 474 to 464 nm and an increase in absorption intensity (Fig. 2C). […] In contrast, spectral changes in cob(II)alamin were not observed with E193K ATR (Fig. 2D), indicating either greatly weakened affinity or the presence of bound five-coordinate cob(II)alamin. […] Although some cob(II)alamin (18 μM) was present in the filtrate, the remainder was bound to ATR (Fig. 2D).

E193K ATR [4] = biological target: T3, E193K ATR; experiment: EPR spectroscopy of cob(II)alamin with ATR and ATP; format: binding; set-up: WT and the R190C variants of ΔN18-ATR and full-length E193K ATR were purified; His-tag (thrombin-cleavable) (N, cleaved yes); made in house; host or cells: E. coli BL21 (DE3); details: E193K ATR 500 μM trimer, cob(II)alamin 300 μM, 5 mM ATP, 100 K
Experimental: as §1

R190C ATR [5] = biological target: T1, R190C ATR; experiment: Cob(II)alamin binding to ATR, UV-visible titration; set-up: The expression construct for recombinant human full-length and ΔN18 ATR in a pET-28b vector; His-tag (thrombin-cleavable) (N, cleaved yes); made in house; host or cells: E. coli BL21 (DE3); details: 1 mM ATP, anaerobic, buffer A
Experimental: as §2

WT ATR = biological target: T4, WT ATR (Homo sapiens, UniProt Q96EY8); experiment: Cob(II)alamin binding to ATR, UV-visible titration; set-up: The expression construct for recombinant human full-length and ΔN18 ATR in a pET-28b vector; His-tag (thrombin-cleavable) (N, cleaved yes); made in house; host or cells: E. coli BL21 (DE3); details: 1 mM ATP, anaerobic, buffer A
T4 sequence (Q96EY8 38-250 limits assumed): T1 sequence (Q96EY8 38-250 R190C limits assumed) with C153R
Experimental: as §2

R190H ATR [6] = biological target: T2, R190H ATR; experiment: EPR spectroscopy of cob(II)alamin with ATR and ATP; format: binding; details: R190H ATR 500 μM trimer, cob(II)alamin 300 μM, 5 mM ATP, 100 K
Experimental: as §1

Structure (SMILES): C/C1=C2/[N-][C@H]([C@H](CC(N)=O)[C@@]2(C)CCC(=O)NC[C@@H](C)OP(=O)([O-])O[C@H]2[C@@H](O)[C@@H](n3cnc4cc(C)c(C)cc43)O[C@@H]2CO)[C@]2(C)N=C(/C(C)=C3N=C(/C=C4N=C1[C@@H](CCC(N)=O)C\4(C)C)[C@@H](CCC(N)=O)[C@]\3(C)CC(N)=O)[C@@H](CCC(N)=O)[C@]2(C)CC(N)=O.[Co+2] [cob(II)alamin]
- four-coordinate base-off cob(II)alamin, share of EPR spectrum (R190C ATR [1]): 75%
- unbound five-coordinate base-on cob(II)alamin, share of EPR spectrum (R190C ATR [1]): 25%
- Kd (R190H ATR [2]): 38.5 ± 16.5 µM
- cob(II)alamin in the filtrate (unbound) (E193K ATR [3]; E193K ATR 1.5 mM): 18%
- cob(II)alamin present in the filtrate (unbound) (E193K ATR [3]; cob(II)alamin 100 μM, E193K ATR 500 μM trimer, ATP 2 mM): 18 µM
- five-coordinate base-off cob(II)alamin, share of EPR spectrum (E193K ATR [4]): 76% and ~80%
- free base-on cob(II)alamin, share of EPR spectrum (E193K ATR [4]): 24% and 20%
- Kd (R190C ATR [5]): 46 ± 10 µM
- Kd (WT ATR): 0.08 ± 0.01 µM
- four-coordinate base-off cob(II)alamin, share of EPR spectrum (R190H ATR [6]): 75%
- unbound five-coordinate base-on cob(II)alamin, share of EPR spectrum (R190H ATR [6]): 25%
